{"source": "patent US8022235B2", "about": "“Compositions of phospholipid ether boronic acids and esters and methods for their synthesis and use” (Cellectar, Inc., priority 2007, dated 2011)", "key": {"[1]": {"tested_on": "human PC-3 prostate tumor xenografts", "experiment": "Scintigraphy, microPET and tissue distribution in PC-3 tumor model", "type": "in vivo, SCID mice", "protocol": "The avidity of PLE and APC analogs to localize in tumors was evaluated in several animal models. The PC-3 model represents a human tumor cell line that was used to determine the target (tumor) to non-target ratio of NM404 and NM412 in head to head comparison in order to select a candidate for an initial human pharmacokinetic trial in prostate cancer patients. The MatLyLu (Dunning R3327 rat) model, a rat prostate tumor line, was used specifically to screen 9 specific analogs prior to entering them into control for dosimetry and tumor-bearing animals for determining tumor/background ratios. Finally, the Walker-256 carcinosarcoma model was used for quantitative tissue distribution purposes.\nGamma camera scintigraphy images shown in FIG. 5 directly compare the tumor uptake and body clearance of second generation analog ^125I-NM404 (1) versus its shorter chain, first generation predecessor, ^125I-NM324 (12-(m-iodophenyl)dodecyl phosphocholine) at 1, 2, and 4 days post administration in immune-compromised SCID mice bearing human PC-3 prostate tumor xenografts.\nTumor uptake, however, continued to increase up until day 5 when it reached 18% injected dose per gram of tumor. […] Tumor to background tissue ratios exceeded 4, 6.8, 23, and 9 in blood, liver, muscle, and prostate, respectively, 3 days after injection and continued to improve at 5 and 8 days. Again, although thyroid levels ranged from 26 to 54% injected dose per gram of tissue, these levels are actually quite low and represent an extremely small percentage of the injected dose when the exceedingly small mass of the organ is considered and the data are presented on a percent administered dose per organ basis."}, "[2]": {"tested_on": "Pancreatic c-myc and kras", "experiment": "Imaging and tissue distribution, tumor model", "type": "in vivo, Spontaneous mice", "settings": "Adenocarcinoma", "source_text": "(§2) Imaging and tissue distribution studies performed in mouse models aimed at determining the uptake characteristics in a wide variety of tumor models are summarized in Table 1, below."}, "[3]": {"experiment": "Human safety studies of unlabeled NM404", "type": "in vivo", "settings": "normal male humans, mass of 10 times the anticipated imaging dose", "protocol": "Formal toxicology studies of NM404 in male rats and rabbits were performed at the Toxicology Research Center of the State University of New York at Buffalo under the direction of Dr. Paul Kostyniak. Drug vehicle and drug product were provided to Dr. Kostyniak by Dr. Raymond Counsell of the University of Michigan for testing as described in the appended synopses of Study 27 and Study 28. […] Human safety studies of unlabeled NM404 were initiated in normal male humans at a mass of 10 times the anticipated imaging dose and about 21 times the anticipated therapy dose. […] This toxicology study was performed under GLP conditions."}, "Cervical": {"tested_on": "Cervical", "experiment": "Imaging and tissue distribution, tumor model", "type": "in vivo, Spontaneous Mouse", "settings": "Adenocarcinoma"}, "animal tumor models": {"tested_on": "animal tumor models", "settings": "radioiodinated analogs, xenograft and spontaneous tumor rodent models, previous reports; cited from earlier work"}, "Hepatocellular Carcinoma": {"tested_on": "Hepatocellular Carcinoma", "experiment": "Imaging and tissue distribution, tumor model", "type": "in vivo, Spontaneous TGF-α mouse", "settings": "Adenocarcinoma", "source_text": "as §2"}, "Glioma L9": {"tested_on": "Glioma L9", "experiment": "Imaging and tissue distribution, tumor model", "type": "in vivo, Rat", "source_text": "as §2"}, "SCC1 and 6": {"tested_on": "SCC1 and 6", "experiment": "Imaging and tissue distribution, tumor model; tumor regression", "type": "in vivo", "settings": "Squamous cell carcinoma", "from_the_text": "(§1) During the course of mouse tumor uptake and retention studies with “imaging” doses (15-20 μCi/20 g mouse) of ^125I-labeled NM404, several apparent therapeutic responses have been observed (unpublished results). […] Some of these animals also lost all hair above larger mammary tumors at around 8 days after injection. Moreover, these mice also get intestinal tumors and usually suffer from intestinal bleeding resulting in severe anemia, which renders their feet white. […] Another compelling example of tumor regression is illustrated in FIG. 13. Two litter mates each received SCC1 and SCC6 xenografts in their left and right flanks, respectively. One mouse received a single injection of ^125I-NM404 (20 μCi). […] These coincidental findings were reconfirmed in two separate age-matched groups each involving more than 6 mice."}, "Mammary SCC and ACC": {"tested_on": "Mammary SCC and ACC", "experiment": "Imaging and tissue distribution, tumor model; therapeutic responses at imaging doses", "type": "in vivo, Apc^Min/+mouse", "settings": "Squamous cell carcinoma and Adenocarcinoma", "from_the_text": "as §1"}, "Adrenal RL-251": {"tested_on": "Adrenal RL-251", "experiment": "Imaging and tissue distribution, tumor model", "type": "in vivo, SCID Mouse"}}, "data": [{"smiles": "C[N+](C)(C)CCOP(=O)([O-])OCCCCCCCCCCCCCCCCCCc1ccc(I)cc1", "note": "[NM404, 18-(p-iodophenyl)-octadecyl phosphocholine]", "values": [{"measurement": "tumor to background tissue ratio, blood", "setting": "[1]; 3 days after injection", "value": "exceeded 4"}, {"measurement": "tumor to background tissue ratio, liver", "setting": "[1]; 3 days after injection", "value": "> 6.8"}, {"measurement": "tumor to background tissue ratio, muscle", "setting": "[1]; 3 days after injection", "value": "> 23"}, {"measurement": "tumor to background tissue ratio, prostate", "setting": "[1]; 3 days after injection", "value": "> 9"}, {"measurement": "elimination of radioactivity from normal tissues", "setting": "[1]; 8 day evaluation period", "value": "rapid elimination of radioactivity from all normal tissues"}, {"measurement": "Uptake", "setting": "[1]; Prostate PC-3, Adenocarcinoma", "value": "Yes"}, {"measurement": "tumor uptake", "setting": "[1]; SCID mouse prostate and A549 lung cancer tumor models", "value": "exceeding 25 % of the injected dose"}, {"measurement": "tumor uptake", "setting": "[1]; radioiodinated NM404, day 5 (maximum)", "value": "18 % injected dose per gram of tumor"}, {"measurement": "liver and background radioactivity", "setting": "[1]; scintigraphy at 1, 2 and 4 days, compared with NM324", "value": "much improved"}, {"measurement": "Uptake", "setting": "[2]", "value": "Yes"}, {"measurement": "toxicity", "setting": "[3]", "value": "no toxicity attributable to the drug substance"}, {"measurement": "Uptake", "setting": "Cervical", "value": "Yes"}, {"measurement": "selective retention by tumors", "setting": "animal tumor models", "value": "selectively retained by a variety of human and animal tumors"}, {"measurement": "Uptake", "setting": "Hepatocellular Carcinoma", "value": "Yes"}, {"measurement": "Uptake", "setting": "Glioma L9", "value": "Yes"}, {"measurement": "Uptake", "setting": "SCC1 and 6", "value": "Yes"}, {"measurement": "Uptake", "setting": "Mammary SCC and ACC", "value": "Yes"}, {"measurement": "Uptake", "setting": "Adrenal RL-251; Adenocarcinoma", "value": "Yes"}, {"measurement": "tumor retention", "setting": "Adrenal RL-251; human adrenal tumor xenograft, FIG. 7", "value": "Prolonged tumor retention"}]}]}
